This is an account of results in patent US9296741B2, “Bromodomain inhibitors” (priority 2012, dated 2016).

What is called Ki is the equilibrium dissociation constant of an inhibitor or competing ligand from its target.

The structures appear in SMILES notation.

Series [1] deals with breast cancer cell line MX-1. The experiment in a line: MX-1 cell line proliferation assay. It is filed as cell-based, human. The settings on record: Homo sapiens, MX1, 72 h; MX-1 cells, 3-day proliferation, Cell Titer Glo; read-out: Cellular proliferation: EC50.
Series [2] deals with human BRD4 second bromodomain (BDII_E352-M457) (Homo sapiens (Human), UniProt O60885). The experiment in a line: TR-FRET bromodomain binding assay, BRD4 second bromodomain. (In general: In TR-FRET formats the signal depends on donor and acceptor labels being close together.)
Series [3] concerns the target human BRD4 first bromodomain (BDI_K57-E168) (Homo sapiens (Human), UniProt O60885). The experiment in a line: TR-FRET bromodomain binding assay, BRD4 first bromodomain.
Series [4] in a line: Mouse liver microsome stability assay. It is filed as in vitro ADME. The note with it: male, CD1, mouse, microsomes, pH 7.4. On the technique in general: Liver microsomes are a subcellular fraction often used to study metabolism.
Series [5] is described as follows: Human liver microsome stability assay. The class given is in vitro ADME. The settings on record: both sexes, human, microsomes, pH 7.4.
A short description of series [6]: Rat liver microsome stability assay. The class given is in vitro ADME. The note with it: rat liver microsomes (male Sprague-Dawley), 0.5 μM test compound, 0.25 mg/mL microsomal protein, pH 7.4, 37° C.; read-out: Stability in rat liver microsomes (t1/2 in minutes).

As to `CCS(=O)(=O)c1ccc(OCC2CC2(F)F)c(-c2cn(C)c(=O)c3[nH]c(C(=O)NCC(F)(F)F)cc23)c1` (stereo not drawn) [Example 327, 4-{2-[(2,2-difluorocyclopropyl)methoxy]-5-(ethylsulfonyl)phenyl}-6-methyl-7-oxo-N-(2,2,2-trifluoroethyl)-6,7-dihydro-1H-pyrrolo[2,3-c]pyridine-2-carboxamide], in series [1], the EC50 worked out at 35.4 nM. Also, the results for the Ki in series [2] and in series [3] were 4.2 nM and 8.5 nM, respectively. Moreover, the half-life at 0.5 μM in series [4], in series [5] and in series [6] was > 120 min each time.

For `CCOC(=O)c1cc2c(-c3cc(N)ccc3Oc3ccccc3)cn(C)c(=O)c2[nH]1` [Example 69, ethyl 4-(5-amino-2-phenoxyphenyl)-6-methyl-7-oxo-6,7-dihydro-1H-pyrrolo[2,3-c]pyridine-2-carboxylate], the EC50 in series [1] is 140 nM. The Ki is 12.3 nM in series [2] and 39 nM in series [3]. Besides, the half-life at 0.5 μM came to 3 min in series [4], 6 min in series [5] and 2 min in series [6].

Regarding `CCS(=O)(=O)Nc1ccc(Oc2ccccc2)c(-c2cn(C)c(=O)c3[nH]ccc23)c1` [Example 21, N-[3-(6-methyl-7-oxo-6,7-dihydro-1H-pyrrolo[2,3-c]pyridin-4-yl)-4-phenoxyphenyl]ethanesulfonamide], in series [1], the EC50 was 13.9 nM. In addition, the figures for the Ki in series [2] and in series [3] were 0.25 nM and 0.39 nM, respectively. Moreover, the half-life at 0.5 μM in series [4] is 22 min; in series [5], > 120 min; in series [6], 3 min.

Consider `CN1CCN(C(=O)c2cc3c(-c4cc(S(C)(=O)=O)ccc4Oc4ccc(F)cc4F)cn(C)c(=O)c3[nH]2)CC1` [Example 256, 4-[2-(2,4-difluorophenoxy)-5-(methylsulfonyl)phenyl]-6-methyl-2-[(4-methylpiperazin-1-yl)carbonyl]-1,6-dihydro-7H-pyrrolo[2,3-c]pyridin-7-one], for which, in series [1], the EC50 was 405 nM. In addition, the inhibitory constant (Ki) is 84 nM in series [2] and 6.1 nM in series [3]. The half-life at 0.5 μM in series [4] is 71 min; in series [5], 58 min; in series [6] it was 58 min.

Turning to `Cn1cc(-c2cc(NS(=O)(=O)CCF)ccc2Oc2c(F)cc(F)cc2F)c2cc[nH]c2c1=O` [Example 114, 2-fluoro-N-[3-(6-methyl-7-oxo-6,7-dihydro-1H-pyrrolo[2,3-c]pyridin-4-yl)-4-(2,4,6-trifluorophenoxy)phenyl]ethanesulfonamide], the EC50 in series [1] is > 3000 nM. Further, the Ki in series [2] worked out at 121 nM; in series [3], 136 nM. For the same compound, the results for the half-life at 0.5 μM in series [4], in series [5] and in series [6] were 8 min, 13 min and 5 min, respectively.

As to `Cn1cc(-c2cc(S(C)(=O)=O)ccc2Oc2ccc(F)cc2F)c2cc(COc3ccccc3)[nH]c2c1=O` [Example 292, 4-[2-(2,4-difluorophenoxy)-5-(methylsulfonyl)phenyl]-6-methyl-2-(phenoxymethyl)-1,6-dihydro-7H-pyrrolo[2,3-c]pyridin-7-one], the EC50 in series [1] worked out at 366 nM. Besides, the Ki in series [2] amounted to 55.8 nM; in series [3], 53.2 nM. For the same compound, the half-life at 0.5 μM in series [4] stood at 12 min; in series [5] it was 8 min; in series [6], 22 min.

As for `CC(=O)Nc1ccc(Oc2ccc(F)cc2F)c(-c2cn(C)c(=O)c3[nH]ccc23)c1` [Example 37, N-[4-(2,4-difluorophenoxy)-3-(6-methyl-7-oxo-6,7-dihydro-1H-pyrrolo[2,3-c]pyridin-4-yl)phenyl]acetamide], the EC50 in series [1] worked out at 59.3 nM. Further, the Ki in series [2] was 10.8 nM; in series [3] it was 11.3 nM. In addition, the half-life at 0.5 μM in series [4] was determined as 3 min; in series [5] it was 88.9 min; in series [6], 54 min.

Take `Cn1cc(-c2cc(S(C)(=O)=O)ccc2Oc2ccc(F)cc2F)c2cc(C(=O)Nc3nccs3)[nH]c2c1=O` [Example 257, 4-[2-(2,4-difluorophenoxy)-5-(methylsulfonyl)phenyl]-6-methyl-7-oxo-N-(1,3-thiazol-2-yl)-6,7-dihydro-1H-pyrrolo[2,3-c]pyridine-2-carboxamide]: the EC50 in series [1] worked out at 360 nM. Besides, the Ki in series [2] stood at 3 nM; in series [3] it was 58.8 nM. In addition, the results for the half-life at 0.5 μM in series [4], in series [5] and in series [6] were 20.3 min, 18 min and 56 min, respectively.

Consider `CN(C)CCS(=O)(=O)Nc1ccc(Oc2ccc(F)cc2F)c(-c2cn(C)c(=O)c3[nH]ccc23)c1` [Example 300, N-[4-(2,4-difluorophenoxy)-3-(6-methyl-7-oxo-6,7-dihydro-1H-pyrrolo[2,3-c]pyridin-4-yl)phenyl]-2-(dimethylamino)ethanesulfonamide], for which the EC50 in series [1] turned out to be 176 nM. Moreover, the results for the Ki in series [2] and in series [3] were 190 nM and 389 nM, respectively. Besides, the half-life at 0.5 μM was found to be 17 min in series [4], 30 min in series [5] and 21 min in series [6].

As to `CCS(=O)(=O)Nc1ccc(OCC2CC2)c(-c2cn(C)c(=O)c3[nH]ccc23)c1C` [Example 251, N-[4-(cyclopropylmethoxy)-2-methyl-3-(6-methyl-7-oxo-6,7-dihydro-1H-pyrrolo[2,3-c]pyridin-4-yl)phenyl]ethanesulfonamide], the EC50 in series [1] stood at 573 nM. Also, the figures for the Ki in series [2] and in series [3] were 171 nM and 63.1 nM, respectively. For the same compound, the figures for the half-life at 0.5 μM in series [4], in series [5] and in series [6] were 44 min, 118 min and 23 min, respectively.

For the compound `Cn1cc(-c2cc(S(C)(=O)=O)ccc2OCC2CCOC2)c2cc[nH]c2c1=O` (stereo not drawn) [Example 217, 6-methyl-4-[5-(methylsulfonyl)-2-(tetrahydrofuran-3-ylmethoxy)phenyl]-1,6-dihydro-7H-pyrrolo[2,3-c]pyridin-7-one], in series [1], the EC50 came to 34.2 nM. The Ki in series [2] stood at 8.1 nM; in series [3], 3.3 nM. Further, the results for the half-life at 0.5 μM in series [4], in series [5] and in series [6] were 68 min, 70 min and 101 min, respectively.

Turning to `Cc1ccc(S(=O)(=O)n2ccc3c(-c4cc(NS(C)(=O)=O)ccc4Oc4ccccc4)cn(C)c(=O)c32)cc1` [Example 7, N-(3-{6-methyl-1-[(4-methylphenyl)sulfonyl]-7-oxo-6,7-dihydro-1H-pyrrolo[2,3-c]pyridin-4-yl}-4-phenoxyphenyl)methanesulfonamide], the EC50 in series [1] was > 3000 nM. In addition, the Ki in series [2] came to 77.3 nM; in series [3], 119 nM. For the same compound, the half-life at 0.5 μM came to 4 min in series [4], 12 min in series [5] and 2 min in series [6].

For the compound `Cn1cc(-c2cc(S(C)(=O)=O)ccc2OCC2C[C@@H]3CC[C@H]2C3)c2cc[nH]c2c1=O` (stereo partly drawn) [Example 230, 4-{2-[(1S,4R)-bicyclo[2.2.1]hept-2-ylmethoxy]-5-(methylsulfonyl)phenyl}-6-methyl-1,6-dihydro-7H-pyrrolo[2,3-c]pyridin-7-one], the EC50 in series [1] is 23.6 nM. The Ki was 1.5 nM in series [2] and 2.6 nM in series [3]. Moreover, the half-life at 0.5 μM in series [4] was 7 min; in series [5], 6 min; in series [6] it was 8 min.
